Source: patent US12723063B2, “GIPR-agonist compounds” (Eli Lilly and Company, priority 2019, dated 2026)
*1 amine or outer side, *2 acyl side, *3 side chain or, on linkers, in order; H or OH if unused. Where a SMILES comes first, the peptide text is derived from it. Side-chain parts run from the residue outwards. [ ]: non-standard residue; d: D form. The star is where a group is joined. C20 diacid = O=C(O)CCCCCCCCCCCCCCCCCCC(=O)*; αMePhe(2-F) = C[C@](N)(Cc1ccccc1F)C(=O)O; γGlu = O=C(O)[C@H](CCC(=O)[*:2])N[*:1]; 4Pal = N[C@@H](Cc1ccncc1)C(=O)O; αMeL = CC(C)C[C@](C)(N)C(=O)O; Iva = CC[C@](C)(N)C(=O)O; AEEA = NCCOCCOCC(=O)O; Aib = CC(C)(N)C(=O)O

Tests used:
Assay in all cases: cAMP functional assay (HTRF) in HEK293 cells in presence of 0.1% casein
Format in all cases: cell-based
[1] = molecular target: T1, human glucose-dependent insulinotropic peptide receptor (GIPR) (Homo sapiens, UniProt P48546); details: HEK293 cells expressing human GIPR, geometric mean, read-out: hGIPR cAMP Rel EC50 nM (SEM, n)
T1 construct: expressed in transfected cells; host or cells: HEK293
T1 sequence (P48546 22-466): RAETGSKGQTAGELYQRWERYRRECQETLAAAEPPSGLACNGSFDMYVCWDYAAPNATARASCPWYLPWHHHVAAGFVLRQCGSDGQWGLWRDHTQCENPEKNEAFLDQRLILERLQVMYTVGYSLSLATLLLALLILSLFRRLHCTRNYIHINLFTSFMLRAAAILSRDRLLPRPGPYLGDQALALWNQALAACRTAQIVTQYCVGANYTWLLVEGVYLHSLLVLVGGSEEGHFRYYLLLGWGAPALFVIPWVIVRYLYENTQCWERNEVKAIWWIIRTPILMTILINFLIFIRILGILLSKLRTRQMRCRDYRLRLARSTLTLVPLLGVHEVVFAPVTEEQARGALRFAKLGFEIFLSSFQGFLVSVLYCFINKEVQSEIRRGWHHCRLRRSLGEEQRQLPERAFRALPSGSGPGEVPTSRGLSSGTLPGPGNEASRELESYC
Experimental: (§1) Each receptor over-expressing cell line (20 μl) is treated with the test peptide in DMEM (Gibco Cat #31053) supplemented with 0.1% Casein (Sigma Cat #C4765), 250 μM IBMX, 1× GlutaMAX™ (Gibco Cat #35050), and 20 mM HEPES (HyClone Cat #SH30237.01) in a 20 μl assay volume. After incubating for 60 minutes at room temperature, the resulting increase in intracellular CAMP is quantitatively determined using the CisBio CAMP Dynamic 2 HTRF Assay Kit (62AM4PEJ). The Lysis buffer containing cAMP-d2 conjugate (20 μl) and the antibody anti-cAMP-Eu3+-Cryptate (20 μl) are then added to determine the cAMP level. After incubating 60 minutes at room temperature, HTRF signal is detected with an Envision 2104 plate reader (PerkinElmer). Fluorescent emission at 620 nm and at 665 nm is measured and the ratio between 620 nm and at 665 nm is calculated and then are converted to nM cAMP per well using a cAMP standard curve. Dose response curves of compounds are plotted as the percentage of stimulation normalized to minimum (buffer only) and maximum (maximum concentration of each control ligand) values and analyzed using a four parameter non-linear regression fit with a variable slope (Genedata Screener 13). EC50 is the concentration of compound causing half-maximal simulation in a dose response curve. A relative EC50 value is derived by non-linear regression analysis using the percent maximal response vs, the concentration of peptide added, fitted to a four-parameter logistic equation.
(§2) Intracellular cAMP levels are determined by extrapolation using a standard curve. Dose response curves of compounds are plotted as the percentage of stimulation normalized to minimum (buffer only) and maximum (maximum concentration of each control ligand) values and analyzed using a four-parameter non-linear regression fit with a variable slope (Genedata Screener 13). EC50 is the concentration of compound causing half-maximal simulation in a dose response curve. Each relative EC50 value for the geometric mean calculation is determined from a curve fitting.
(§3) Concentration response curves of compounds are plotted as the percentage of stimulation normalized to minimum (buffer only) and maximum (maximum concentration of each control ligand) values and analyzed using a four-parameter non-linear regression fit with a variable slope (Genedata Screener 13). EC50 is the concentration of compound causing half-maximal simulation in a dose response curve. […] The standard error of the mean is reported:
(§4) [formula] • The log transform accounts for the EC50 values falling on a multiplicative, rather than an arithmetic scale.
(§5) For illustration, as shown by Example 1, the peptide is tested in 8 runs of the hGIPR CAMP assay. […] Accordingly, each Example will use the geometric mean of those values to normalize the Example assay runs.

[2] = molecular target: T2, human GLP-1 receptor (GLP-1R) (Homo sapiens, UniProt P43220); details: HEK293 cells expressing human GLP-1R, geometric mean, read-out: hGLP1R cAMP Rel EC50 nM (SEM, n)
T2 construct: expressed in transfected cells; host or cells: HEK293
T2 sequence (P43220 24-463): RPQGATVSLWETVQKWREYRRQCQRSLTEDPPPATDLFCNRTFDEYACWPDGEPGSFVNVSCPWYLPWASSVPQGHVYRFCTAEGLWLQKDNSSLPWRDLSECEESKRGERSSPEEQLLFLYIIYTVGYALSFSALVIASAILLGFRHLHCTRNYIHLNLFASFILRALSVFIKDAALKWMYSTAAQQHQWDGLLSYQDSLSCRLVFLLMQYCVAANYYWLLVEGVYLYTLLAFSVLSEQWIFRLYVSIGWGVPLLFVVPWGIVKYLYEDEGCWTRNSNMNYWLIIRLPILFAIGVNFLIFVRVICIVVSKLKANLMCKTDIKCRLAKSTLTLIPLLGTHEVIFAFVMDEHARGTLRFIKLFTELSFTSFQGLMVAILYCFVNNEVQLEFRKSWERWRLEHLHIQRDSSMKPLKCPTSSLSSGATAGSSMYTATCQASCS
Experimental: as §1, §2, §3, §4, §5

[3] = molecular target: T3, human glucagon receptor (GcgR) (Homo sapiens, UniProt P47871); details: HEK293 cells expressing human GcgR, geometric mean, read-out: hGcgR cAMP Rel EC50 nM (SEM, n)
T3 construct: expressed in transfected cells; host or cells: HEK293
T3 sequence (P47871 26-477): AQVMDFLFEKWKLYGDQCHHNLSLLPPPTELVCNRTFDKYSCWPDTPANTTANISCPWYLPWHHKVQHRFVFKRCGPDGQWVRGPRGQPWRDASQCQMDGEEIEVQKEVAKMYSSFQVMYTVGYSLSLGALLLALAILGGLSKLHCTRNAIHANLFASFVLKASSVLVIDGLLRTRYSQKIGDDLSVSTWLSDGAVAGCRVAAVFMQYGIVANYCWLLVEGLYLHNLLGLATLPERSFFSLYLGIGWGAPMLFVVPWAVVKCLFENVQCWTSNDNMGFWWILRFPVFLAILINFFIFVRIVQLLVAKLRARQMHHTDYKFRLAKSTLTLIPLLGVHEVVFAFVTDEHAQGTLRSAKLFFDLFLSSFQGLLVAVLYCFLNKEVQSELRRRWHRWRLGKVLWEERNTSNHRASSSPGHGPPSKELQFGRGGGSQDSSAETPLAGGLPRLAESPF
Experimental: as §1, §2, §3, §4, §5

SMILES	EC50 [1] [nM]	EC50 [2] [nM]	EC50 [3] [nM]
CC[C@H](C)[C@H](NC(=O)[C@H](CO)NC(=O)[C@H](Cc1ccc(O)cc1)NC(=O)[C@H](CC(=O)O)NC(=O)[C@H](CO)NC(=O)[C@@H](NC(=O)[C@](C)(Cc1ccccc1F)NC(=O)[C@@H](NC(=O)CNC(=O)[C@H](CCC(=O)O)NC(=O)C(C)(C)NC(=O)[C@@H](N)Cc1ccc(O)cc1)[C@@H](C)O)[C@@H](C)CC)C(=O)N[C@@H](C)C(=O)N[C@@H](CC(C)C)C(=O)N[C@@H](CC(=O)O)C(=O)N[C@@H](CCCCN)C(=O)N[C@H](C(=O)N[C@@H](Cc1c[nH]cn1)C(=O)N[C@@H](CCC(N)=O)C(=O)NC(C)(C)C(=O)N[C@@H](CCC(=O)O)C(=O)N[C@@H](Cc1ccccc1)C(=O)N[C@H](C(=O)N[C@@H](CC(N)=O)C(=O)N[C@@H](Cc1ccc(O)cc1)C(=O)N[C@@H](CCCCNC(=O)COCCOCCNC(=O)COCCOCCNC(=O)CC[C@H](NC(=O)CCCCCCCCCCCCCCCCCCC(=O)O)C(=O)O)C(=O)N[C@@H](CC(C)C)C(=O)N[C@@H](C)C(=O)NCC(=O)NCC(=O)N1CCC[C@H]1C(=O)N[C@@H](CO)C(=O)N[C@@H](CO)C(=O)NCC(=O)N[C@@H](C)C(=O)N1CCC[C@H]1C(=O)N1CCC[C@H]1C(=O)N1CCC[C@H]1C(=O)N[C@@H](CO)C(N)=O)C(C)C)[C@@H](C)CC [Example 98] (H-Y[Aib]EGT[αMePhe(2-F)]ISDYSIALDKIHQ[Aib]EFVNYK([AEEA-AEEA-γGlu-C20 diacid])LAGGPSSGAPPPS-NH2)	0.00718	649	> 5000
CC[C@H](C)[C@H](NC(=O)[C@H](CO)NC(=O)[C@H](Cc1ccc(O)cc1)NC(=O)[C@H](CC(=O)O)NC(=O)[C@H](CO)NC(=O)[C@@H](NC(=O)[C@](C)(CC)NC(=O)[C@@H](NC(=O)CNC(=O)[C@H](CCC(=O)O)NC(=O)C(C)(C)NC(=O)[C@@H](N)Cc1ccc(O)cc1)[C@@H](C)O)[C@@H](C)CC)C(=O)N[C@@](C)(CC(C)C)C(=O)N[C@@H](CC(C)C)C(=O)N[C@@H](CC(=O)O)C(=O)N[C@@H](CCCCN)C(=O)N[C@@H](CCCCNC(=O)COCCOCCNC(=O)COCCOCCNC(=O)CC[C@H](NC(=O)CCCCCCCCCCCCCCCCCCC(=O)O)C(=O)O)C(=O)N[C@@H](Cc1c[nH]cn1)C(=O)N[C@@H](CCC(N)=O)C(=O)NC(C)(C)C(=O)N[C@@H](CC(=O)O)C(=O)N[C@@H](Cc1ccccc1)C(=O)N[C@H](C(=O)N[C@@H](CCC(=O)O)C(=O)N[C@@H](Cc1ccncc1)C(=O)N[C@@H](CC(C)C)C(=O)N[C@@H](CC(C)C)C(=O)N[C@@H](CCC(=O)O)C(=O)NCC(=O)NCC(=O)N1CCC[C@H]1C(=O)N[C@@H](CO)C(=O)N[C@@H](CO)C(=O)NCC(=O)N[C@@H](C)C(=O)N1CCC[C@H]1C(=O)N1CCC[C@H]1C(=O)N1CCC[C@H]1C(=O)N[C@@H](CO)C(N)=O)C(C)C [Example 74] (H-Y[Aib]EGT[Iva]ISDYSI[αMeL]LDKK([AEEA-AEEA-γGlu-C20 diacid])HQ[Aib]DFVE[4Pal]LLEGGPSSGAPPPS-NH2)	0.0167	> 5000	627
CC[C@H](C)[C@H](NC(=O)[C@H](CO)NC(=O)[C@H](Cc1ccc(O)cc1)NC(=O)[C@H](CC(=O)O)NC(=O)[C@H](CO)NC(=O)[C@@H](NC(=O)[C@H](Cc1ccccc1)NC(=O)[C@@H](NC(=O)CNC(=O)[C@H](CCC(=O)O)NC(=O)[C@@H](C)NC(=O)[C@@H](N)Cc1ccc(O)cc1)[C@@H](C)O)[C@@H](C)CC)C(=O)N[C@@H](CC(C)C)C(=O)N[C@@H](CC(C)C)C(=O)N[C@@H](CC(=O)O)C(=O)N[C@@H](CCCCN)C(=O)N[C@@H](CCCCNC(=O)COCCOCCNC(=O)COCCOCCNC(=O)CC[C@H](NC(=O)CCCCCCCCCCCCCCCCCCC(=O)O)C(=O)O)C(=O)N[C@@H](Cc1c[nH]cn1)C(=O)N[C@@H](CCC(N)=O)C(=O)N[C@@H](CCC(N)=O)C(=O)N[C@@H](CC(=O)O)C(=O)N[C@@H](Cc1ccccc1)C(=O)N[C@H](C(=O)N[C@@H](CCC(=O)O)C(=O)N[C@@H](Cc1c[nH]c2ccccc12)C(=O)N[C@@H](CC(C)C)C(=O)N[C@@H](CC(C)C)C(=O)N[C@@H](C)C(=O)N[C@@H](CCC(N)=O)C(=O)NCC(=O)N1CCC[C@H]1C(=O)N[C@@H](CO)C(=O)N[C@@H](CO)C(=O)NCC(=O)N[C@@H](C)C(=O)N1CCC[C@H]1C(=O)N1CCC[C@H]1C(=O)N1CCC[C@H]1C(=O)N[C@@H](CO)C(N)=O)C(C)C [Example 14] (H-Y[dA]EGTFISDYSILLDKK([AEEA-AEEA-γGlu-C20 diacid])HQQDFVEWLLAQGPSSGAPPPS-NH2)	0.34	> 100	> 5000
CC[C@H](C)[C@H](NC(=O)[C@H](CCCCN)NC(=O)[C@H](CC(=O)O)NC(=O)[C@H](CC(C)C)NC(=O)[C@](C)(CC(C)C)NC(=O)[C@@H](NC(=O)[C@H](CO)NC(=O)[C@H](Cc1ccc(O)cc1)NC(=O)[C@H](CC(=O)O)NC(=O)[C@H](CO)NC(=O)[C@@H](NC(=O)[C@H](Cc1ccccc1)NC(=O)[C@@H](NC(=O)CNC(=O)[C@H](CCC(=O)O)NC(=O)C(C)(C)NC(=O)[C@@H](N)Cc1ccc(O)cc1)[C@@H](C)O)[C@@H](C)CC)[C@@H](C)CC)C(=O)N[C@@H](Cc1c[nH]cn1)C(=O)N[C@@H](CCC(N)=O)C(=O)NC(C)(C)C(=O)N[C@@H](CC(=O)O)C(=O)N[C@@H](Cc1ccccc1)C(=O)N[C@H](C(=O)N[C@@H](CCC(=O)O)C(=O)N[C@@H](Cc1ccc(O)cc1)C(=O)N[C@@H](CCCCNC(=O)COCCOCCNC(=O)COCCOCCNC(=O)CC[C@H](NC(=O)CCCCCCCCCCCCCCCCCCC(=O)O)C(=O)O)C(=O)N[C@@H](CC(C)C)C(=O)N[C@@H](CCC(=O)O)C(=O)N[C@@H](C)C(=O)NCC(=O)N1CCC[C@H]1C(=O)N[C@@H](CO)C(=O)N[C@@H](CO)C(=O)NCC(=O)N[C@@H](C)C(=O)N1CCC[C@H]1C(=O)N1CCC[C@H]1C(=O)N1CCC[C@H]1C(=O)N[C@@H](CO)C(N)=O)C(C)C [Example 117] (H-Y[Aib]EGTFISDYSI[αMeL]LDKIHQ[Aib]DFVEYK([AEEA-AEEA-γGlu-C20 diacid])LEAGPSSGAPPPS-NH2)	0.0617	> 5000	> 5000
CC[C@H](C)[C@H](NC(=O)[C@H](CO)NC(=O)[C@H](Cc1ccc(O)cc1)NC(=O)[C@H](CC(=O)O)NC(=O)[C@H](CO)NC(=O)[C@@H](NC(=O)[C@H](Cc1ccccc1)NC(=O)[C@@H](NC(=O)CNC(=O)[C@H](CCC(=O)O)NC(=O)[C@@H](C)NC(=O)[C@@H](N)Cc1ccc(O)cc1)[C@@H](C)O)[C@@H](C)CC)C(=O)N[C@@H](CC(C)C)C(=O)N[C@@H](CC(C)C)C(=O)N[C@@H](CC(=O)O)C(=O)N[C@@H](CCCCN)C(=O)N[C@@H](CCCCNC(=O)COCCOCCNC(=O)COCCOCCNC(=O)CC[C@H](NC(=O)CCCCCCCCCCCCCCCCCCC(=O)O)C(=O)O)C(=O)N[C@@H](C)C(=O)N[C@@H](CCC(N)=O)C(=O)N[C@@H](CCC(N)=O)C(=O)N[C@@H](CC(=O)O)C(=O)N[C@@H](Cc1ccccc1)C(=O)N[C@H](C(=O)N[C@@H](CC(N)=O)C(=O)N[C@@H](Cc1c[nH]c2ccccc12)C(=O)N[C@@H](CC(C)C)C(=O)N[C@@H](CC(C)C)C(=O)N[C@@H](C)C(=O)NCC(=O)NCC(=O)N1CCC[C@H]1C(=O)N[C@@H](CO)C(=O)N[C@@H](CO)C(=O)NCC(=O)N[C@@H](C)C(=O)N1CCC[C@H]1C(=O)N1CCC[C@H]1C(=O)N1CCC[C@H]1C(=O)N[C@@H](CO)C(N)=O)C(C)C [Example 12] (H-Y[dA]EGTFISDYSILLDKK([AEEA-AEEA-γGlu-C20 diacid])AQQDFVNWLLAGGPSSGAPPPS-NH2)	0.0911	> 100	> 5000
